Key:
Experiment in all cases: relative viability (nuclei count vs DMSO), 5 days (fraction); higher = more cells survive
[1] = compound: O=C(NCCCNc1nc(Nc2cccc(NC(=O)N3CCCC3)c2)ncc1I)c1cccs1 [BX 795] + COc1cc2c(Oc3ccc(NC(=O)C4(C(=O)Nc5ccc(F)cc5)CC4)cc3F)ccnc2cc1OCCCN1CCOCC1 [Foretinib] (partner 0.25 µM)
Summary of the method: (§1)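 A single step with final 0.05% Triton X-100, 1% formaldehyde and 1 ug/ml Hoechst fixed the cells and stained nuclei 5 days after treatment. Lung cancer cell lines in 1536-well plates had been treated by pin tool the day after seeding with one drug alone or a fixed anchor-drug dose plus five library-drug doses (not always all listed) in √10 steps, and nuclei were counted on 4× images. Relative viability is the ratio of nuclei in treated wells to nuclei in vehicle wells, taken as the median of duplicate plates.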

[2] = compound: O=C(NCCCNc1nc(Nc2cccc(NC(=O)N3CCCC3)c2)ncc1I)c1cccs1 [BX 795] + O=C(CCCCCCC(=O)Nc1ccccc1)NO [Vorinostat] (partner 1 µM)
Summary of the method: as §1

[3] = compound: O=C(NCCCNc1nc(Nc2cccc(NC(=O)N3CCCC3)c2)ncc1I)c1cccs1 [BX 795] + CC(=O)c1c(C)c2cnc(Nc3ccc(N4CCNCC4)cn3)nc2n(C2CCCC2)c1=O [Palbociclib] (partner 0.5 µM)
Summary of the method: as §1

[4] = compound: O=C(NCCCNc1nc(Nc2cccc(NC(=O)N3CCCC3)c2)ncc1I)c1cccs1 [BX 795] + Nc1nc2[nH]cc(CCc3ccc(C(=O)N[C@@H](CCC(=O)O)C(=O)O)cc3)c2c(=O)[nH]1 [Pemetrexed] (partner 0.2 µM)
Summary of the method: as §1

[5] = compound: O=C(NCCCNc1nc(Nc2cccc(NC(=O)N3CCCC3)c2)ncc1I)c1cccs1 [BX 795] + CCNC(=O)c1noc(-c2cc(C(C)C)c(O)cc2O)c1-c1ccc(CN2CCOCC2)cc1 [Luminespib] (partner 0.01 µM)
Summary of the method: as §1

Row | Cell Line | relative viability ([1]; first compound 0.04 µM) | relative viability ([1]; first compound 0.1265 µM) | relative viability ([1]; first compound 0.4 µM) | relative viability ([1]; first compound 1.265 µM) | relative viability ([2]; first compound 0.04 µM) | relative viability ([2]; first compound 0.1265 µM) | relative viability ([2]; first compound 0.4 µM) | relative viability ([2]; first compound 1.265 µM) | relative viability ([3]; first compound 0.04 µM) | relative viability ([3]; first compound 0.1265 µM) | relative viability ([3]; first compound 0.4 µM) | relative viability ([3]; first compound 1.265 µM) | relative viability ([4]; first compound 0.04 µM) | relative viability ([4]; first compound 0.1265 µM) | relative viability ([4]; first compound 0.4 µM) | relative viability ([4]; first compound 1.265 µM) | relative viability ([5]; first compound 0.04 µM) | relative viability ([5]; first compound 0.1265 µM) | relative viability ([5]; first compound 0.4 µM) | relative viability ([5]; first compound 1.265 µM)
1 | NCI-H2023 | 0.722 | 0.912 | 0.427 | 0.551 | 0.471 | 0.689 | 0.189 | 0.3 | 0.4 | 0.366 | 0.358 | 0.17 | 0.257 | 0.221 | 0.139 | 0.182 | 0.766 | 0.613 | 0.442 | 0.272
2 | NCI-H2347 | 1.03 | 0.915 | 0.8 | 0.773 | 0.5 | 0.633 | 0.717 | 0.505 | 0.496 | 0.417 | 0.523 | 0.496 | 0.424 | 0.375 | 0.434 | 0.434 | 0.534 | 0.563 | 0.751 | 0.607
3 | LCLC-103H | 0.848 | 0.843 | 0.847 | 0.621 | 0.675 | 0.811 | 0.699 | 0.695 | 0.441 | 0.511 | 0.529 | 0.445 | 0.432 | 0.429 | 0.407 | 0.452 | 0.941 | 0.84 | 1.06 | 0.737
4 | NCI-H1650 | 1.24 | 1.06 | 0.668 | 0.792 | 0.593 | 0.486 | 0.528 | 0.369 | 0.394 | 0.328 | 0.319 | 0.289 | 0.392 | 0.431 | 0.243 | 0.416 | 0.212 | 0.191 | 0.206 | 0.189
5 | SW 1573 | 0.916 | 0.844 | 0.971 | 0.777 | 0.862 | 0.875 | 0.558 | 0.276 | 0.537 | 0.428 | 0.468 | 0.172 | 0.748 | 0.81 | 0.836 | 0.516 | 0.214 | 0.488 | 0.514 | 0.172
6 | NCI-H2170 | 0.979 | 1.02 | 1.05 | 0.998 | 0.942 | 0.985 | 0.824 | 0.817 | 0.364 | 0.395 | 0.394 | 0.381 | 0.271 | 0.286 | 0.243 | 0.249 | 0.83 | 0.541 | 0.39 | 0.544
7 | NCI-H647 | 1.19 | 1.24 | 1.26 | 0.916 | 0.553 | 0.658 | 0.571 | 0.189 | 0.425 | 0.365 | 0.384 | 0.3 | 0.163 | 0.186 | 0.106 | 0.106 | 0.149 | 0.134 | 0.104 | 0.105
8 | NCI-H2126 | 1.31 | 1.02 | 1.3 | 1.03 | 0.805 | 0.799 | 0.913 | 0.73 | 0.387 | 0.329 | 0.35 | 0.34 | 0.713 | 0.692 | 0.457 | 0.666 | 0.902 | 0.955 | 0.812 | 0.944
9 | LOU-NH91 | 0.936 | 0.922 | 0.934 | 0.979 | 0.846 | 0.955 | 0.842 | 0.903 | 0.5 | 0.478 | 0.558 | 0.5 | 0.321 | 0.38 | 0.294 | 0.377 | 0.372 | 0.3 | 0.303 | 0.307
10 | NCI-H1755 | 0.926 | 0.865 | 0.894 | 0.67 | 0.738 | 0.735 | 0.739 | 0.761 | 0.493 | 0.43 | 0.458 | 0.441 | 0.42 | 0.44 | 0.381 | 0.447 | 0.635 | 0.412 | 0.283 | 0.388
11 | NCI-H2342 | 1.17 | 0.896 | 1.07 | 0.914 | 0.754 | 0.734 | 0.651 | 0.726 | 0.599 | 0.518 | 0.47 | 0.498 | 0.782 | 0.718 | 0.758 | 0.715 | 0.793 | 0.588 | 0.79 | 0.743
12 | NCI-H1651 | 0.786 | 0.748 | 0.76 | 0.674 | 0.553 | 0.478 | 0.548 | 0.541 | 0.566 | 0.534 | 0.538 | 0.541 | 0.602 | 0.571 | 0.409 | 0.596 | 0.982 | 0.987 | 0.78 | 0.511
13 | CAL-12T | 1.16 | 1.13 | 0.873 | 1.07 | 0.661 | 0.715 | 0.523 | 0.413 | 0.473 | 0.55 | 0.298 | 0.218 | 1.1 | 1.28 | 0.809 | 0.494 | 0.534 | 0.488 | 0.194 | 0.181
14 | NCI-H460 | 1.03 | 1.16 | 1.01 | 0.922 | 0.822 | 0.967 | 0.48 | 0.285 | 0.163 | 0.156 | 0.0784 | 0.149 | 0.0535 | 0.0622 | 0.0597 | 0.0576 | 0.0385 | 0.0327 | 0.0422 | 0.0269
15 | SK-MES-1 | 0.917 | 0.971 | 0.823 | 0.674 | 1.1 | 1.11 | 0.545 | 0.748 | 0.303 | 0.302 | 0.271 | 0.286 | 0.923 | 0.854 | 0.612 | 0.649 | 0.857 | 0.757 | 0.78 | 0.5
